This is an account of results in patent publication US8445502B2, “Pharmaceutical formulations comprising salts of a protein kinase inhibitor and methods of using same” (Astex Pharmaceuticals, Inc., priority 2007, dated 2013).

One data set concerns A549 lung cancer cells. Format: in vivo. The note with it: Day 26, 10 mg/kg IP in sterile saline, qd×5×3 wk (vehicle 43). As to the method:
(§1) MP470 and MP470 HCl were tested against different tumor types in athymic nude mice as summarized below (Table 8). Various formulations and routes were evaluated. HT-29 colorectal cancer cells and SB-CL2 melanoma cells were implanted subcutaneously, while A549 lung cancer cells, MiaPaCa-2 pancreatic cancer cells, TT medullary thyroid cancer cells, and OVCAR-3 ovarian cancer cells were implanted […] in the hind flank of mice. All animals were allowed to develop medium-sized (80-125 mg) tumors, before initiation of dosing. Tumor volume and mouse bodyweight were followed over the course of the study.
A549 Lung Cancer Model—In 40 nude mice implanted intradermally with A549 lung cancer cells, animals were dosed with vehicle orally, MP470 in 100% corn oil orally, or 5-FU in sterile saline IP. […] […] While MP470 reduced tumor growth rates, treatment of these cells with 5-FU reduced the overall tumor growth rate per day further to 19.5 mm3/d on Day 26.
To determine whether MP470.HCl in combination with carboplatin increased the anti-tumor activity in xenograft tumors growing in vivo, the agents were administered alone and in combination and tumor growth was monitored. MP470.HCl (50 mg/kg) was combined with carboplatin (30 mg/kg) alone or carboplatin with taxol (20 mg/kg).

Data set [1] deals with Rad51 in A549 non-small cell lung cancer cells. Description: Rad51 protein level by Western blot in cells. The note with it: 6.1 μM carboplatin, 24 hrs. Type of data set: cell-based. As to the method: Rad51 protein levels were also determined in A549 non-small cell lung cancer cells using combinations with DNA damaging agents. Cells were treated for 24 hrs with 6.1 μM (IC30 of carboplatin alone) carboplatin in combination with 0.71 μM or 3.82 μM MP470.HCl. Protein lysates were isolated from treated and non-treated cells, separated by SDS-PAGE, and transferred to nitrocellulose. […] The increase in Rad51 due to carboplatin treatment was reduced by 26% when treated in combination with 0.71 μM MP470.HCl and by 42% with 3.82 μM MP470.HCl
(In general: Immunoblotting shows a protein as a band on a membrane.)

The subject of a further data set is NCI-H647 NSCLC cells. Nature of the data set: Sensitization of NSCLC cells to carboplatin. Format: cell-based. The note with it: NCI-H647, single agent. The method, then: (§2) The non-small cell lung cancer cell lines A549 and NCI-H647 were used for these experiments. […] The IC50 concentrations observed for carboplatin against both of these cell lines was consistent with this.
(§3) Two sub-IC50 doses of MP470.HCl were tested in combination with carboplatin to evaluate possible synergism between these agents and consequently a lower IC50 value for carboplatin in each of the cell lines.
(§4) MP470.HCl was able to dramatically decrease the IC50 of carboplatin in these cells.

The subject of a further data set is A549 NSCLC cells. Nature of the data set: Sensitization of NSCLC cells to carboplatin. Format: cell-based. The following applies: A549, single agent. As to the method: as §2, §3, §4
For a further data set, the system named is DMS-114 SCLC cells. Nature of the data set: Sensitization of SCLC cells to etoposide. Type of data set: cell-based. The note with it: Homo sapiens; DMS-114, single agent. As to the method:
(§5) Therefore, to determine if MP470 would increase sensitivity to etoposide treatment, SCLC cells were treated with the agents individually and in combination. […] Two sub-IC50 doses of MP470.HCl were tested in combination with etoposide to evaluate possible synergism and a resulting lower IC50 value for etoposide in each of the cell lines.

The subject of the next data set is DMS-153 SCLC cells. Nature of the data set: Sensitization of SCLC cells to etoposide. Format: cell-based. The note with it: Homo sapiens; DMS-153, single agent. The method, then: as §5
A short description of data set [2]: Solubility of MP470 and its salts (Table 2). Format: physicochemical. The note with it: water.
Data set [3] has as its system OVCAR-3 ovarian cancer cells. Description: OVCAR-3 ovarian cancer tumor model in nude mice. Type of data set: in vivo. As to the method: as §1
OVCAR-3 Ovarian Cancer Model—Forty-two nude mice were implanted subcutaneously with OVCAR-3 ovarian carcinoma, the hydrochloride salt of MP470 (MP470.HCl) was formulated in 100% corn oil and delivered orally. MP470.HCl, cisplatin, and irinotecan were administered to animals alone or in combination. When administered alone, MP470.HCl was given qd at 100 or 200 mg/kg, irinotecan was given q3d at 20 mg/kg, and cisplatin was given q7d at 5 mg/kg. In combination studies, 100 mg/kg MP470.HCl was given qd and combined with 20 mg/kg irinotecan given q3d or 5 mg/kg cisplatin given q7d. One animal in the 200 mg/kg MP470.HCl group died on Day 1, while five animals in the MP470.HCl/cisplatin combination group died (one on Day 5, Day 6, Day 7, Day, 20, and Day 27). Treatment with each individual agent (200 mg/kg MP470.HCl, 46.2 mm3/d; 20 mg/kg irinotecan, 38.53 mm3/d; 5 mg/kg cisplatin, 33.8 mm3/d) reduced the tumor growth rate below that of vehicle-treated mice (78.04 mm3/d). […] In contrast, when MP470.HCl and cisplatin were used in combination, the tumor growth rate was reduced to 10.22 mm3/d. However, the 100 mg/kg dose of MP470.HCl in combination with cisplatin caused enhanced toxicity and most animals in this group died during the 21-day treatment period. The enhanced toxicity was related to the level of the dose used, so a subsequent study was conducted using half the dose, 50 mg/kg/day as described below.

The conditions of data set [4]: rat, in vivo, po. The method, then: Twenty-four rats were placed into four groups each consisting of three animals per sex. The animals were weighed the day before dosing, as well as just prior to dosing.
After intravenous infusion of MP470.HCl at 5 mg/kg, average MP470 peak plasma concentrations of 454.3 ng/mL for males and 370.7 ng/mL for females were attained at 0.083 hours (5 minutes), the first sampling point postdose. After oral administration of non-micronized MP470.HCl, peak plasma concentrations of MP470 were attained at 0.5-12 hours for Group 2 (25 mg/kg) and 4-12 hours for Group 3 (100 mg/kg, suspension). The extent of systemic exposure of rats to MP470, characterized by AUCO-∞, was approximately 3.8-fold and 2.9-fold higher in females than in males for Groups 2 and 3, respectively. Average AUCO-∞ values were higher at 100 mg/kg than at 25 mg/kg and the increases in AUCO-∞ were greater than dose-proportional.
After oral administration of micronized MP470.HCl (Group 4), peak plasma concentrations of MP470 were attained at 4-12 hours. The extent of systemic exposure of rats to MP470, characterized by AUCO-∞, was approximately 3.4-fold higher in females than in males for Group 4. The extent of exposure of rats to MP470, characterized by AUCO-∞, was 1.7-fold (males) and 1.4-fold (females) higher for non-micronized MP470 HCl (Group 3) than for micronized MP470 HCl (Group 4).

Data set [5] has as its system γ-H2AX levels in OVCAR-3 (ovarian carcinoma) cells. Description: DNA damage by γ-H2AX levels. Type of data set: cell-based. The following applies: single agent 10 μM; control 0.5% DMSO medium. The method, then: OVCAR-3 (ovarian carcinoma) cells were treated with MP470 (10 μM), MP470.HCl (10 μM), and/or topotecan (10 μM).

Structures are written as SMILES. Read-outs that look alike come from different tables or passages of the source.

Consider `O=c1[nH]cc(F)c(=O)[nH]1` [5-FU, 5-fluorouracil, reference compound], for which, in the data set on A549 lung cancer cells, the tumor growth rate is recorded as 19.5 mm3/d. The IC50 is the concentration needed to halve the response being measured. For `N.N.O=C([O-])C1(C(=O)[O-])CCC1.[Pt+2]` [Carboplatin, reference compound], the “increase of Rad51 levels over non-treatment levels” value in data set [1] is 12 fold. The IC50 was 173 µM with NCI-H647 NSCLC cells and 20.1 µM with A549 NSCLC cells.

With `COc1cc([C@@H]2c3cc4c(cc3[C@@H](O[C@@H]3O[C@@H]5CO[C@@H](C)O[C@H]5[C@H](O)[C@H]3O)[C@H]3COC(=O)[C@H]23)OCO4)cc(OC)c1O` [Etoposide, reference compound], the results for the IC50 in the data set with DMS-114 SCLC cells and in the data set on DMS-153 SCLC cells were 0.92 µM and 0.29 µM, respectively. On to `S=C(NCc1ccc2c(c1)OCO2)N1CCN(c2ncnc3c2oc2ccccc23)CC1` [MP470 Esylate], for which the Solubility in water in [2] amounted to 5.89 µg/mL. Take `N.N.[Cl][Pt][Cl]` [cisplatin, reference compound]: in data set [3] (5 mg/kg q7d (vehicle 78.04)), the tumor growth rate was determined as 33.8 mm3/d. Regarding `CCc1c2c(nc3ccc(OC(=O)N4CCC(N5CCCCC5)CC4)cc13)-c1cc3c(c(=O)n1C2)COC(=O)[C@]3(O)CC` [irinotecan, reference compound], in data set [3] (20 mg/kg q3d (vehicle 78.04)), the tumor growth rate stood at 38.53 mm3/d. As to `Cl.S=C(NCc1ccc2c(c1)OCO2)N1CCN(c2ncnc3c2oc2ccccc23)CC1` [micronized MP470.HCl], in [4] (100 mg/kg), the “AUC0-∞ in females relative to males” value is on record as “approximately 3.4 fold” and the “time of peak plasma concentration” value was 4 to 12 h. Turning to `Cl.S=C(NCc1ccc2c(c1)OCO2)N1CCN(c2ncnc3c2oc2ccccc23)CC1` [non-micronized MP470.HCl], in data set [4] (25 mg/kg), the “AUC0-∞ in females relative to males” value is “approximately 3.8 fold” and the “time of peak plasma concentration” value fell in the range of 0.5 to 12 h. In data set [4] (100 mg/kg), the “AUC0-∞ in females relative to males” value is roughly 2.9 fold and the “time of peak plasma concentration” value was 4 to 12 h. Regarding `CC[C@@]1(O)C(=O)OCc2c1cc1n(c2=O)Cc2cc3c(CN(C)C)c(O)ccc3nc2-1` [topotecan, reference compound], the “Increase in DNA damage (γ-H2AX) over control” value in data set [5] came to 65%.
